Assay results from ChEMBL document CHEMBL5291721, “A preclinical secondary pharmacology resource illuminates target-adverse drug reaction associations of marketed drugs” (Nat Commun, 2023).

Experiments:
[1] = molecular target: T1, Amine oxidase [flavin-containing] A (Homo sapiens, UniProt P21397); type: functional
T1 sequence (P21397 whole entry): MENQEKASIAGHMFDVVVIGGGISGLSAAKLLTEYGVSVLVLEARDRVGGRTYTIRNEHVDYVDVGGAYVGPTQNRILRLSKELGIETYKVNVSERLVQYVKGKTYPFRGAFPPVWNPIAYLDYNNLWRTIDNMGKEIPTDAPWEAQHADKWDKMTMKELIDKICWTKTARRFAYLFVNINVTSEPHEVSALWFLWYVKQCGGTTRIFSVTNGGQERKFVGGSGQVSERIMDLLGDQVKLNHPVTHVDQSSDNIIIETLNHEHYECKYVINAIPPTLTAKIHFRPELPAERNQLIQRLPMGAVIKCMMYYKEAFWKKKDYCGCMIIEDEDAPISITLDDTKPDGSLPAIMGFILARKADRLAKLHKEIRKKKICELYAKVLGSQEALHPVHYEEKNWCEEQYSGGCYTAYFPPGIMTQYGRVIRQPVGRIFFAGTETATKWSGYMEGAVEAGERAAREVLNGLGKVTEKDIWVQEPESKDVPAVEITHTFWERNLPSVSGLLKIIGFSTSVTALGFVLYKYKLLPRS

[2] = molecular target: Growth hormone secretagogue receptor type 1 (Homo sapiens, UniProt Q92847)
Vasopressin V2 receptor = Vasopressin V2 receptor (Homo sapiens, UniProt P30518)
[3] = molecular target: T2, Alpha-2A adrenergic receptor (Homo sapiens, UniProt P08913); type: functional, cell-based
T2 sequence (P08913 whole entry): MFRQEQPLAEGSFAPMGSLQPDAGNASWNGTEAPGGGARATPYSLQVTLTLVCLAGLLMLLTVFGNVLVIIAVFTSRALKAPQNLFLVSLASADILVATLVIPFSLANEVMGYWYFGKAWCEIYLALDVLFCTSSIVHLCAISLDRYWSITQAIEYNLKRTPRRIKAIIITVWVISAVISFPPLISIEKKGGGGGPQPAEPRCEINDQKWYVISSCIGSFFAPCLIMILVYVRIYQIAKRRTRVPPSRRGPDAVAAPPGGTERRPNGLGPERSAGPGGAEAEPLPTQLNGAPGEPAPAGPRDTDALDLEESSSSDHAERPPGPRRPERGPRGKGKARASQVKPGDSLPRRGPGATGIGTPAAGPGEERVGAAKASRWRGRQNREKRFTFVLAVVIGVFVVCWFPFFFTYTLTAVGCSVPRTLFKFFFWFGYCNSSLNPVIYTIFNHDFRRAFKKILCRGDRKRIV

[4] = molecular target: 5-hydroxytryptamine receptor 2B (Homo sapiens, UniProt P41595); type: functional, cell-based
[5] = molecular target: T3, Equilibrative nucleoside transporter 1 (Homo sapiens, UniProt Q99808)
T3 sequence (Q99808 whole entry): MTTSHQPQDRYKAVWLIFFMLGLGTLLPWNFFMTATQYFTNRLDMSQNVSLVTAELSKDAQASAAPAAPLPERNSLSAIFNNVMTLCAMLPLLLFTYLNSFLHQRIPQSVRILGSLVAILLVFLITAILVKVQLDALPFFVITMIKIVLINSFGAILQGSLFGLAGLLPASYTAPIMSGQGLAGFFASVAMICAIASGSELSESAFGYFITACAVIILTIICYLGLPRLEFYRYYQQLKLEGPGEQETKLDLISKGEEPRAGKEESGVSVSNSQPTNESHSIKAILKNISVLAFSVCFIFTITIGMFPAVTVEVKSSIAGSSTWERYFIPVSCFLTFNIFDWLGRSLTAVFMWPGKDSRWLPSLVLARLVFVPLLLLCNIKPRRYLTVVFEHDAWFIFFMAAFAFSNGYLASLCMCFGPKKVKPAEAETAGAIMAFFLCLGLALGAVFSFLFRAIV

[6] = molecular target: Sodium-dependent noradrenaline transporter (Homo sapiens, UniProt P23975)
[7] = molecular target: T4, 5-hydroxytryptamine receptor 1A (Homo sapiens, UniProt P08908); type: functional, cell-based
T4 sequence (P08908 whole entry): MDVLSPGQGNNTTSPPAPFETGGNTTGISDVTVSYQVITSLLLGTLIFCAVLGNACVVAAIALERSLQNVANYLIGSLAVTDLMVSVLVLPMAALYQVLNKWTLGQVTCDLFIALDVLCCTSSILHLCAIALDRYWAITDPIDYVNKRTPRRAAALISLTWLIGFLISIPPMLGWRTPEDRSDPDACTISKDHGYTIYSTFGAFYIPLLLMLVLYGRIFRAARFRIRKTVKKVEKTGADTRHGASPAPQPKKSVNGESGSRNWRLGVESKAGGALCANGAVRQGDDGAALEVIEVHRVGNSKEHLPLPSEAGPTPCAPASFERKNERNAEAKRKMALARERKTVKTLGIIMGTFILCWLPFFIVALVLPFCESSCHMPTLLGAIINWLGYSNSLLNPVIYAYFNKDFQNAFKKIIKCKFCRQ

Estrogen receptor = molecular target: T5, Estrogen receptor (Homo sapiens, UniProt P03372)
T5 sequence (P03372 whole entry): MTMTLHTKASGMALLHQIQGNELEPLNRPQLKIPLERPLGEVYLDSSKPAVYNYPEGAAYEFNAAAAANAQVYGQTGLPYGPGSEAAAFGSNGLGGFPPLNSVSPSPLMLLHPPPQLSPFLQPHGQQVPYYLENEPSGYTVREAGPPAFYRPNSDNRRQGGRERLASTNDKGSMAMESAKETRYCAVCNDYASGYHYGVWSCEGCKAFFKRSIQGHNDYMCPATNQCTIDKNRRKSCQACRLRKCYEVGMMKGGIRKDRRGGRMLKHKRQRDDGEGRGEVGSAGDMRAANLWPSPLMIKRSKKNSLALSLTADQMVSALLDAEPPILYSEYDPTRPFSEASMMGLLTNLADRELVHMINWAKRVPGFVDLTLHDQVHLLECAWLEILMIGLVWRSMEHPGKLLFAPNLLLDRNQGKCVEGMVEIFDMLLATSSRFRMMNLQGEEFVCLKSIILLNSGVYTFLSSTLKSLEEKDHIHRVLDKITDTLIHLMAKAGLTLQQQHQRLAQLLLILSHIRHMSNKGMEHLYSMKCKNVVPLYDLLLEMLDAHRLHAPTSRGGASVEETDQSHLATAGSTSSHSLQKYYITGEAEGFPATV
Further: assay procedure not described here.

Vasopressin V2 receptor, sequence (P30518 whole entry): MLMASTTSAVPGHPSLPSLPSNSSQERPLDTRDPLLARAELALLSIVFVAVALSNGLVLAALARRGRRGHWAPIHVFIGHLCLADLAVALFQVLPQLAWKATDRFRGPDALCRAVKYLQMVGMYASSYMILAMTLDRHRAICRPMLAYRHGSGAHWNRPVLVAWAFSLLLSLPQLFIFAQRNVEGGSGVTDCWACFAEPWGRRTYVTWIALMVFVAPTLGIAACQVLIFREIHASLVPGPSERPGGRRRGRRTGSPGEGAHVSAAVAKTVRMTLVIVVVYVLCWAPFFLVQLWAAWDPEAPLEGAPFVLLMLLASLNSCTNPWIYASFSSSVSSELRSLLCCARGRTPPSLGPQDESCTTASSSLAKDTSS
Sodium-dependent noradrenaline transporter, sequence (P23975 whole entry): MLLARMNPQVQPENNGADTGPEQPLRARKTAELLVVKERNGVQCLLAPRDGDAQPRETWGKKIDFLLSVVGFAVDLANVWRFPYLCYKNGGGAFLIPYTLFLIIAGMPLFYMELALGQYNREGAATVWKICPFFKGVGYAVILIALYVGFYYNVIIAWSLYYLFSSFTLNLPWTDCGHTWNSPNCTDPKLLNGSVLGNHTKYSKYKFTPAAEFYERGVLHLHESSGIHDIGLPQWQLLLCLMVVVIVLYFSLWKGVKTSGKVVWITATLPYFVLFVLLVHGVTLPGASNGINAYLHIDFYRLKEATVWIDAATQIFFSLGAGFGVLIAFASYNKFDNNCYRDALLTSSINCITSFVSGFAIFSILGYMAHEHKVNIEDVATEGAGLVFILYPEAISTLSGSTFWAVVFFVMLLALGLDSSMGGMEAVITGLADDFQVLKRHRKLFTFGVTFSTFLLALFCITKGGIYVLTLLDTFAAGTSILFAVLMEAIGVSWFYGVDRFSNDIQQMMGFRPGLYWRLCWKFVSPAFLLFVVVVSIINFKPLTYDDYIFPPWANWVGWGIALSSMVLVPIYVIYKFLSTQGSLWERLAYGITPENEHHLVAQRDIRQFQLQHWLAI
5-hydroxytryptamine receptor 2B, sequence (P41595 whole entry): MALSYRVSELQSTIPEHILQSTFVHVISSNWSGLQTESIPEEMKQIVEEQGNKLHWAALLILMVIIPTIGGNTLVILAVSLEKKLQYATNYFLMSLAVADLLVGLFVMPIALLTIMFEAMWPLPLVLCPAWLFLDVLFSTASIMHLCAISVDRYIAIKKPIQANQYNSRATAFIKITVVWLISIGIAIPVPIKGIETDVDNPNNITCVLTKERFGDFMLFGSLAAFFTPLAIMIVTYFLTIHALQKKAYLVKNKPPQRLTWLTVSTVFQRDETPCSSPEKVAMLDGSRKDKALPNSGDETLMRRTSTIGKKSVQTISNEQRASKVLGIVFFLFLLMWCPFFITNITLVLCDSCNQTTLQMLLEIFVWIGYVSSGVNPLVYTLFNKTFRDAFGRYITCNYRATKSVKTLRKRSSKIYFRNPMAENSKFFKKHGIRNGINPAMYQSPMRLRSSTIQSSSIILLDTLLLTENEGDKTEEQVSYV
Growth hormone secretagogue receptor type 1, sequence (Q92847 whole entry): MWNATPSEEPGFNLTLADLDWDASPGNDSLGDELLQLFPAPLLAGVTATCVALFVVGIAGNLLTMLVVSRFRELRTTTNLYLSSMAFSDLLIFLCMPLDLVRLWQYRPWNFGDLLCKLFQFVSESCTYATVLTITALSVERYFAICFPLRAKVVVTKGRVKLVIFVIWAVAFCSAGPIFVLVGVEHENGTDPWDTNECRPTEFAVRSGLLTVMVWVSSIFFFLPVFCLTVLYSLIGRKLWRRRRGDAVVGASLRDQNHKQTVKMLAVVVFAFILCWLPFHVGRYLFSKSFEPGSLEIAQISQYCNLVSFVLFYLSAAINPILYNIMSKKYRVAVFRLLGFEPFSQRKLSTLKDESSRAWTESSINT

SMILES | AC50 [1] | AC50 [2] | AC50 (Vasopressin V2 receptor) | AC50 [3] | AC50 [4] | AC50 [5] | AC50 [6] | AC50 [7] | AC50 (Estrogen receptor)
CCOC(=O)[C@H](CCc1ccccc1)N[C@@H](C)C(=O)N1CCC[C@H]1C(=O)O | > 10 µM | > 30 µM | > 30 µM | > 10 µM | > 10 µM | > 30 µM | > 10 µM | > 10 µM | –
CN(C)CCCN1c2ccccc2CCc2ccc(Cl)cc21 [CLOMIPRAMINE] | > 10 µM | – | – | > 10 µM | 5.6 µM | – | – | > 30 µM | –
CC(C)Cc1ccc(CC(=O)O)cc1 [IBUFENAC] | > 30 µM | > 30 µM | – | > 30 µM | > 30 µM | > 30 µM | > 30 µM | > 30 µM | –
CC(=O)c1ccc2c(c1)N(CCCN1CCN(CCO)CC1)c1ccccc1S2 [ACETOPHENAZINE] | > 30 µM | > 30 µM | – | 1.2 µM | 4.49 µM | > 30 µM | 17 µM | > 30 µM | –
CC(N)Cc1ccccc1 (stereo unspecified) [AMPHETAMINE] | > 30 µM | > 30 µM | > 30 µM | > 30 µM | > 30 µM | > 30 µM | – | > 30 µM | > 30 µM
CCc1nn(CCCN2CCN(c3cccc(Cl)c3)CC2)c(=O)n1CCOc1ccccc1 [NEFAZODONE] | > 10 µM | > 30 µM | > 30 µM | – | 1.1 µM | 19.2 µM | – | 2 µM | > 30 µM
CC[C@H](C)C(=O)O[C@H]1C[C@H](O)C=C2C=C[C@H](C)[C@H](CC[C@@H](O)C[C@@H](O)CC(=O)O)[C@H]21 [PRAVASTATIN] | > 30 µM | > 30 µM | – | > 30 µM | > 30 µM | > 30 µM | > 30 µM | > 30 µM | –
C[C@H]1C[C@@H]2[C@H]([C@@H](O)C[C@@]3(C)[C@H]2CC[C@]3(O)C(=O)CO)[C@@]2(C)C=CC(=O)C=C12 [METHYLPREDNISOLONE] | > 30 µM | > 10 µM | > 10 µM | > 10 µM | > 10 µM | > 10 µM | > 10 µM | > 10 µM | –
CNC(=O)c1cc(Oc2ccc(NC(=O)Nc3ccc(Cl)c(C(F)(F)F)c3)cc2)ccn1 [SORAFENIB] | 8.26 µM | > 30 µM | > 30 µM | > 30 µM | – | > 30 µM | > 30 µM | – | –
CC(C(=O)O)c1ccc(C(=O)c2cccs2)cc1 (stereo unspecified) [SUPROFEN] | > 10 µM | > 10 µM | > 10 µM | > 10 µM | > 10 µM | > 10 µM | > 10 µM | > 10 µM | –
C[C@@H]1O[C@@H]1P(=O)(O)O [FOSFOMYCIN] | > 10 µM | > 10 µM | > 10 µM | > 10 µM | > 10 µM | > 10 µM | > 10 µM | > 10 µM | –
CC(C)NNC(=O)c1ccncc1 [IPRONIAZID] | – | > 30 µM | – | > 30 µM | > 30 µM | > 30 µM | > 30 µM | > 30 µM | –
NC1=NC(=O)C(c2ccccc2)O1 (stereo unspecified) [PEMOLINE] | > 10 µM | > 30 µM | > 30 µM | > 10 µM | > 10 µM | > 30 µM | > 30 µM | > 10 µM | –
CN1CCCC(n2nc(Cc3ccc(Cl)cc3)c3ccccc3c2=O)CC1 (stereo unspecified) [AZELASTINE] | > 30 µM | 14 µM | – | 0.86 µM | – | > 30 µM | 4.7 µM | > 30 µM | –
COc1cc(Nc2c(C#N)cnc3cc(OCCCN4CCN(C)CC4)c(OC)cc23)c(Cl)cc1Cl [BOSUTINIB] | – | 4.3 µM | – | – | – | 32.5 µM | > 10 µM | – | > 30 µM
C#C[C@]1(O)CC[C@H]2[C@@H]3CCc4cc(O)ccc4[C@H]3CC[C@@]21C [ETHINYL ESTRADIOL] | > 10 µM | > 30 µM | > 30 µM | > 10 µM | 18 µM | > 30 µM | – | 5.7 µM | –
CC(=O)OCC(=O)[C@@]1(O)CC[C@H]2[C@@H]3CCC4=CC(=O)CC[C@]4(C)[C@H]3C(=O)C[C@@]21C [CORTISONE ACETATE] | > 30 µM | – | – | – | > 30 µM | – | – | > 30 µM | –
C[C@H]1O[C@H](O[C@H]2[C@H](O)[C@@H](O)[C@@H](O[C@H]3[C@H](O)[C@@H](O)C(O)O[C@@H]3CO)O[C@@H]2CO)[C@H](O)[C@@H](O)[C@@H]1N[C@H]1C=C(CO)[C@@H](O)[C@H](O)[C@H]1O (stereo partly specified) [ACARBOSE] | > 10 µM | > 30 µM | > 30 µM | > 30 µM | > 30 µM | > 30 µM | > 30 µM | > 30 µM | –
OCc1cc([C@@H](O)CNCCCCCCOCCOCc2c(Cl)cccc2Cl)ccc1O [VILANTEROL] | > 30 µM | 13 µM | – | > 30 µM | > 30 µM | > 30 µM | 23 µM | > 30 µM | –
Cc1ccc(C(=O)c2cc(O)c(O)c([N+](=O)[O-])c2)cc1 [TOLCAPONE] | > 10 µM | > 10 µM | > 10 µM | > 10 µM | > 10 µM | > 30 µM | 12.9 µM | > 10 µM | –
COc1cc2c(cc1OC)C(=O)C(CC1CCN(Cc3ccccc3)CC1)C2 (stereo unspecified) [DONEPEZIL] | – | > 30 µM | > 30 µM | > 10 µM | – | > 30 µM | 6.1 µM | – | > 30 µM
O=C(NC[C@H]1CN(c2ccc(N3CCOCC3=O)cc2)C(=O)O1)c1ccc(Cl)s1 [RIVAROXABAN] | > 30 µM | – | – | > 30 µM | > 30 µM | – | > 30 µM | > 30 µM | –
